Experimental data from US20090048179A1, “USE OF 5-PHOSPHODIESTERASE INHIBITORS TO ENHANCE THE PERMEABILITY OF THE BLOOD-BRAIN BARRIER OF ABNORMAL BRAIN TISSUE AND THE BLOOD-TUMOR BARRIER” (CEDARS-SINAI MEDICAL CENTER, priority 2005, published 2009).
Structures can show the parent of a compound that is named as a salt. No end group written: not given here.

Legend:
[1] = test system: 9L glioma; test: Survival study, 9L/Fischer rats, treatment on days 7, 8 and 9 post tumor implantation; format: in vivo, rat; settings: treatment on days 7, 8 & 9; Levitra 10 mg/kg oral, Adriamycin 2 mg/kg i.v.; control 21.8
Text: Adult, female Fischer rats (180-200 g) were implanted with 9L glioma cells (100,000 cells). […] 15, 2006.
Rats were monitored daily to determine survival times of the tumor-bearing rats for either death or when animals became moribund, euthanasia was employed.

[2] = test system: 9L gliosarcoma; test: Survival study, 9L/Luc gliosarcoma-bearing rats, treatment for three days from day 4; format: in vivo, rat; settings: vardenafil 10 mg/kg oral, Adriamycin 2 mg/kg i.v., saline 32±2
Text: A p-value of less than 0.05 was considered statistically significant.

[3] = test system: 9L gliosarcoma (9L/Luc); test: Tumor size monitoring by bioluminescence imaging and histology; settings: day 9 after the last treatment; saline (2.21±1.27)×10^6
[4] = test system: caveolae endocytosis; test: In vitro cellular transport of 14C-sucrose with inhibitor of caveolae endocytosis; format: cell-based
Text: To determine whether this is the case for PDE5 inhibitors, the inventor used filipin, an inhibitor of caveolae endocytosis, in the in vitro cellular transport study (FIG. 21; P<0.05 vs. other two treatments). As shown, fillipin abolished the increased transport of ^14C-sucrose by sildenafil. […] As vesicular transport is not specific to brain microvessels per se, the inventor, while not wishing to be bound by any particular theory, believes the mechanism may be responsible for the increased cellular permeability by PDE5 inhibitors in non-CNS cells studied above.

[5] = test system: mouse brain endothelial cells; test: In vitro cellular transport of 14C-sucrose, brain endothelial cells; format: cell-based
[6] = test system: blood-tumor barrier (BTB) of 9L gliosarcoma brain tumors; test: [14C] sucrose transport (Ki) from blood into 9L brain tumors, quantitative autoradiography; format: in vivo, rat
[7] = test system: human brain metastatic lung cancer cell line CRL-5904; test: In vitro 14C-sucrose transport across tumor cells in transwell, CRL-5904; format: cell-based
Experimental: (§1) In addition to endothelial cells, the inventor tested whether the inhibition of PDE5 has any effect on tracer transport in other tumor cells. In the studies, two tumor cell lines (human brain metastatic lung cancer cell line CRL-5904 and human breast cancer cell line MDA-MB-231) were tested.

[8] = test system: human breast cancer cell line MDA-MB-231; test: In vitro 14C-sucrose transport across tumor cells in transwell, MDA-MB-231; format: cell-based
Experimental: as §1

[9] = test system: vessel endothelial cells derived from lung tissues (PVEC); test: In vitro cellular transport of 14C-sucrose, lung vessel endothelial cells; format: cell-based; settings: PVECs
[10] = Animal physiologic parameters (mean arterial blood pressure, blood gases, side effects); format: in vivo, rat; settings: for reduction in mean-arterial blood pressure: BK femoral infusion, sildenafil 5-100 mg/kg or vardenafil 1-20 mg/kg oral; for detectable side effects (e.g. hypotension): oral doses used in the rats
Experimental: For Ki study described below, six days after tumor implantation, the rats were anesthetized with ketamine/xylazine. One femoral vein was cannulated for administration of the appropriate drug and the radiotracer; one femoral artery was cannulated to withdraw arterial blood, and another femoral artery was cannulated to monitor systemic blood pressure. Body temperature was maintained at 37° C., and arterial blood gases, blood pressure and hematocrit were monitored.
Mean-arterial blood pressures were decrease approximately 30% secondary to the femoral infusion of BK.

[11] = test system: cGMP; test: Brain cGMP immunohistochemistry in 9L tumor-bearing rats; format: in vivo, rat; settings: oral vardenafil 10 mg/kg
[12] = test system: cGMP; test: Plasma cGMP assay in 9L tumor-bearing rats; format: in vivo, rat
Experimental: cGMP levels were determined using a ELISA-based kit (Cayman Chemical Co., Ann Arbor, Mich.) for plasma and immunohistocytochemistry with anti-cGMP antibody (Chemicon Corp.) for tissue sections.
Intracerebral inoculations of 9L tumor cells were performed as described above. […] Different groups of rats were anesthetized 5 minutes before and at 30, 60, 90 and 120 minutes after treatment respectively and the femoral vein was cannulated. Blood was collected and the plasma was separated. The cGMP concentration in the plasma was determined using a commercially available ^125I-labeled cGMP assay kit (Amersham, Arlington Heights, Ill.). cGMP content was expressed as pmol/ml of plasma.

[13] = femoral infusion of BK or oral sildenafil or vardenafil

Question: What does the source list for `COc1cccc2c1C(=O)c1c(O)c3c(c(O)c1C2=O)C[C@@](O)(C(=O)CO)C[C@@H]3O[C@H]1C[C@H](N)[C@H](O)[C@H](C)O1` [Adriamycin® (doxorubicin), doxorubicin hydrochloride]?
Answer: Mean Survival Days, Mean [1]: 30 days; mean survival time [2]: 42 ± 2 days; intracerebral tumor size (IVIS bioluminescence) [3]: (1.03±0.28)×10^6

Question: For `CCCCC[C@@H](O)[C@H]1C(=O)O[C@H](C)[C@@H](O)/C=C/C=C/C=C/C=C/C=C(\C)[C@@H](O)C[C@H](O)C[C@H](O)C[C@H](O)C[C@H](O)C[C@H](O)C[C@@H]1O` [fillipin, filipin], which “effect on the increased transport of 14C-sucrose by sildenafil” value [4] is on record?
Answer: abolished

Question: What does the source list for `CCCc1nn(C)c2c(=O)[nH]c(-c3cc(S(=O)(=O)N4CCN(C)CC4)ccc3OCC)nc12` [sildenafil]?
Answer: 14C-sucrose transport [5]: significantly increased; dose giving maximal effect on permeability ([6]; rat, in vivo): 50 mg/kg; increase in BTB permeability ([6]; rat, in vivo): 1.8 fold; time of maximum transport across the BTB into tumor tissues after administration ([6]; rat, in vivo): 60 min; 14C-sucrose transport across cells seeded in the transwell [7]: increased; 14C-sucrose transport across cells seeded in the transwell [8]: increased; 14C-sucrose transport [9]: significantly increased; reduction in mean-arterial blood pressure [10]: 10%; arterial blood pH, carbon dioxide, and partial pressure of oxygen [10, 13]: not changed significantly; detectable side effects (e.g. hypotension) [10]: did not result in any detectable side effects; detectable side effects (e.g. hypotension) ([10]; listed as Viagra®): did not induce hypotension

Question: Which results are given for `CCCc1nc(C)c2c(=O)[nH]c(-c3cc(S(=O)(=O)N4CCN(CC)CC4)ccc3OCC)nn12` [vardenafil]?
Answer: Mean Survival Days, Mean [1]: 22.7 days; mean survival time [2]: 35 ± 1 days; time at which tumor cGMP immunostaining returned to the baseline [11]: 90 min; reduction in mean-arterial blood pressure [10]: 10%; arterial blood pH, carbon dioxide, and partial pressure of oxygen [10, 13]: not changed significantly; detectable side effects (e.g. hypotension) [10]: did not result in any detectable side effects; detectable side effects (e.g. hypotension) ([10]; listed as Levitra®): did not induce hypotension; plasma cGMP level ([12]; 30 minutes after oral vardenafil 10 mg/kg, control 0.72±0.48): 54.96 ± 25.13 pg/mL; plasma cGMP level ([12]; 60 minutes after oral vardenafil 10 mg/kg): 79.20 ± 37.36 pg/mL; plasma cGMP level ([12]; 90 minutes after oral vardenafil 10 mg/kg): 30.13 ± 17.82 pg/mL; time of peak plasma cGMP concentration ([12]; oral vardenafil 10 mg/kg): 60 min

Question: Which “arterial blood pH, carbon dioxide, and partial pressure of oxygen” value ([10]; rat, in vivo, po) does the source give for RPPGFSPFR [BK, Bradykinin] here?
Answer: not changed significantly

Question: For “iberiotoxin (QFTDVDCSVSKECWSVCKDLFGVDRGKCMGKKCRCYQ; UniProt P24663 1-37, looked up)”, which “effect on vardenafil-induced BTB transport increase” value ([6]; iberiotoxin 0.26 μg/kg/min infused 15 min with oral vardenafil 10 mg/kg) is on record?
Answer: abolished
